Experimental data as given in US20240118281A1, “ANTICANCER COMPOUNDS AND USES THEREOF” (University of Florida Research Foundation, Incorporated, priority 2021, published 2024).

Columns and labels:
[1] = test system: MDA-MB-468 and BT474 cells; experiment: Immunoblot analysis of treated cells (FIG. 9D); format: cell-based; conditions: 24 h
Source text: The BT20, BT474, BT549, MCF7, MDA-MB-231, MDA-MB-436, MDA-MB-468, HCC1143, HCC1500, HCC1569, HCC1937, HCC1954, Hs578t, and T47D cells lines were purchased from American Type Culture Collection (ATCC) (Manassas, VA). The HCI-001 cell line was derived from an ER-/PR-/HER2- patient-derived xenograft originally isolated from a patient as described previously (DeRose Y S, et al. Nat Med 2011; 17: 1514-1520). The HCI-001/LVM2 model was derived from the HCI-001 cell line by performing two rounds of selection for liver metastasis, as described previously (Wang M, et al. Cell Death Discovery 2019; 5: 153). Cell lines were grown in Dulbecco's Modified Eagle's Medium (GE Healthcare Life Sciences, Logan, UT) containing 10% fetal bovine serum (10% FBS—DMEM) in a humidified incubator with 5% CO2 at 37° C. Cell lysates were prepared as described previously (Law B K, et al. Mol Cell Biol. 2002; 22: 8184-8198). […]

[2] = test system: HCI-001/LVM2 breast tumors and associated liver metastases; experiment: HCI-001/LVM2 breast tumor liver metastasis study, H&E staining of livers; format: in vivo, mice; conditions: 20 mg/kg oral gavage once daily, four consecutive days; necrosis not observed in vehicle treated tumors
Method: Breast cancer liver metastasis was initiated in NOD-SCID-gamma (NSG) mice obtained from Jackson Laboratories (Bar Harbor, ME) by injecting 1×10^6 cancer cells into the #4 mammary fat pads as described previously (Wang M, et al. Cell Death Discovery 2019; 5: 153). Mice bearing HCI-001/LVM2 breast tumors were treated once daily for four consecutive days with 20 mg/kg tcyDTDO by oral gavage and livers were collected. Animals bearing HER2+ BT474 tumors were treated with the vehicle or 20 mg/kg dMtcyDTDO or dFtcyDTDO by intraperitoneal injection for four consecutive days. Tissue samples fixed in 4% paraformaldehyde/PBS and paraffin-embedded were sectioned and stained with hematoxylin and eosin (H&E) by the University of Florida Molecular Pathology Core (https://molecular.pathology.ufl.edu/).

[3] = test system: proteins in intact cells and purified proteins in vitro; experiment: Preliminary studies of biotinylated DDA protein labeling
Method: (§1) Purified His6-AGR2 or His6-AGR2 C81S, as prepared above, or His6-AGR2 (PRO-580) or His6-AGR3 (PRO-242) obtained from ProSpec (New Brunswick NJ) were incubated with or without varying concentrations of the unlabeled DDA competitors, tcyDTDO or dMtcyDTDO, and 30 μM Biotin-GlyPyrDTDO or Biotin-PyrDTDO in buffer (20 mM HEPES (pH 7.4), 1 mM EDTA, 1 mM EGTA, 5% Glycerol, 1 nM Microcystin, 1 mM Na3VO4, and 40 mM Na2H2P2O7) containing 1% Triton-X 100 for 30 min at 37° C. […] Therefore, the two probes were used interchangeably. Reactions were stopped by boiling the samples in 2×-SDS-Sample Buffer containing 100 mM NEM for 10 min. Biotin-DDA labeling of protein was verified by blotting with Streptavidin-Alkaline Phosphatase (Rockland Immunochemicals, Inc., Limerick, PA). ERp44 (PRO-547) and PDIA1 (ENZ-262) were obtained from ProSpec and used in experiments examining the binding of these proteins to Biotin-PyrDTDO.

[4] = target: T1, AGR3 (Homo sapiens, UniProt Q8TD06); experiment: DDA binding assay with AGR3; conditions: FIG. 2D
T1 construct: His6 (N); purchased ProSpec PRO-242
Method: as §1

[5] = target: T2, C81S AGR2 mutant (Homo sapiens, UniProt O95994, C81S); experiment: DDA-AGR2 binding assay, C81S mutant; conditions: FIG. 2D
T2 construct: made in house; host or cells: E. coli BL21(DE3), pET-45b(+)
Method: Total RNA from BT474 cells was extracted with TRIzol Reagent (Invitrogen, Waltham, MA) according to the manufacturer's protocol. Total cellular RNA was used to synthesize first-strand cDNA by using the PCR conditions listed: 25° C. for 10 min, 42° C. for 30 min, and 95° C. for 5 min. PCR was subsequently performed using the following AGR2 primers: 5′-[…]-3′ and 5′-[…]-3′. The PCR fragment encoding AGR2 was subsequently digested with BamHI and SnaBI and cloned into the 5′ BamHI and 3′ SnaBI sites of pMXs-IRES-Blasticidin. The AGR2/pMXs-IRES-Blasticidin vector was used as a template for PCR reactions using the following AGR2 primers to amplify the DNA sequence downstream of the AGR2 signal sequence and to add 5′-BamHI and 3′-SalI sites: 5′-[…]-3′ and 5′-[…]-3′. The PCR fragment was digested with BamHI and SalI and cloned into the 5′ BamHI and 3′ SalI sites of pET-45b(+) (Novagen Burlington, MA). QuikChange mutagenesis was performed to produce the C81S mutation of AGR2 using the follow primers: 5′- […]-3′ and 5′-[…]-3′. The C81S mutation of AGR2 was verified by sequencing.
Competent BL21(DE3) cells were transformed with either the AGR2/pET-45b(+) or AGR2 C81S/pET-45b(+) vectors. Protein expression was induced by the addition of 50 µM Isopropyl β-D-1-thiogalactopyranoside (Fisher Scientific, Fair Lawn, NJ) to bacterial cell cultures for 2.5 hours and shaking at 37° C. […]

[6] = target: T3, AGR2 (Homo sapiens, UniProt O95994); experiment: DDA-AGR2 binding assay, Streptavidin-Alkaline Phosphatase blot; design: made in house; host or cells: E. coli BL21(DE3), pET-45b(+); conditions: 37° C., non-reducing SDS-PAGE, FIG. 2B
T3 sequence (O95994 21-175): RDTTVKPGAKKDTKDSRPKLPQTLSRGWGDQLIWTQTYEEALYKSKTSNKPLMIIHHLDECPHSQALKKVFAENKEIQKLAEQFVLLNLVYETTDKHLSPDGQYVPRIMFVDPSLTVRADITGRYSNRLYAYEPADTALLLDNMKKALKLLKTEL
Method: Competent BL21(DE3) cells were transformed with either the AGR2/pET-45b(+) or AGR2 C81S/pET-45b(+) vectors. Protein expression was induced by the addition of 50 µM Isopropyl β-D-1-thiogalactopyranoside (Fisher Scientific, Fair Lawn, NJ) to bacterial cell cultures for 2.5 hours and shaking at 37° C. Bacterial cells were subsequently pelleted and dissolved in Mouse Tonicity Phosphate Buffered Saline (MTPBS) containing 1% Triton X-100 and sonicated for 20 seconds on ice, followed by centrifugation for 10 min at 4° C. to pellet cell debris. The supernatant was transferred to a new tube, followed by the addition of TALON Resin (Clontech, Mountain View, CA) and mixing on a Nutator for 30 min at 4° C. The TALON Resin was pelleted by centrifugation and washed twice with MTPBS and twice with MTPBS containing 30 mM Imidazole. Protein bound to the TALON Resin was eluted with 400 mM Imidazole and precipitated with 60% saturated ammonium sulfate. The precipitated protein was pelleted by centrifugation, dissolved in MTPBS containing 1 mM DTT and 1 mM EDTA, and subsequently dialyzed against a solution of MTPBS containing 10 μM DTT and 30% Glycerol.
as §1

T2 sequence (O95994 21-175 C81S): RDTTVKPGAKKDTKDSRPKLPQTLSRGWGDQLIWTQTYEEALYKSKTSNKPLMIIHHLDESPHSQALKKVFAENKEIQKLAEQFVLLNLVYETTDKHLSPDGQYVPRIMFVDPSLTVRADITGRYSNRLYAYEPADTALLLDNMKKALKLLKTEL
T1 sequence (Q8TD06 22-166): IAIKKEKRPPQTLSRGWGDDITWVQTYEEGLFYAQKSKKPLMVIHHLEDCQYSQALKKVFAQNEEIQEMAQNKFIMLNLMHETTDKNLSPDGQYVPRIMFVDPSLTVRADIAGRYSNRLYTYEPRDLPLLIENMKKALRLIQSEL

SMILES: CC(C)(C)OC(=O)N1C[C@@H]2CS(=O)(=O)SC[C@H]2C1 (racemic) [(±)-BocPyrDTDO, tert-Butyl-(4aS,7aS)- and (4aR,7aR)-tetrahydro-1H-[1,2]dithiino[4,5-e]pyrrole-6(4H)-carboxylate 2,2-dioxide]
- Biological activity and potency compared with DTDO [1]: biologically active and showed a potency similar to DTDO

SMILES: O=S1(=O)CC2CCCCC2CS1 (stereo not drawn) [tcyDTDO]
- Liver metastases, H&E histology [2]: exhibited central necrosis

SMILES: O=C(CCCC[C@@H]1SC[C@@H]2NC(=O)N[C@@H]21)NCC(=O)N1C[C@@H]2CS(=O)(=O)SC[C@H]2C1 (racemic) [Biotin-GlyPyrDTDO, N-(2-((4aS,7aS)- and (4aR,7aR)-2,2-Dioxidotetrahydro-1H-[1,2]dithiino[4,5-c]pyrrol-6(4H)-yl)-2-oxoethyl)-5-((3aS,4S,6aR)-2-oxohexahydro-1H-thieno[3,4-d]imidazol-4-yl)pentanamide]
- Labeling of proteins, comparison of the two biotinylated probes [3]: indistinguishable labeling of proteins in intact cells and purified proteins in vitro
- Labeling of AGR3 by biotinylated DDA [4]: also labeled
- Labeling of C81S AGR2 mutant by biotinylated DDA [5]: not labeled
- Labeling of AGR2 by biotinylated DDA [6]: labeled AGR2 in a concentration-dependent manner
